Data as given in PubChem BioAssay (NCI).
Where “and” joins values, the source holds several entries; their conditions need not be identical. Equal values may be shown once.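 Dose response: 5 concentrations. Exposure: 48 h. Format: 96-well plates. Endpoint: linear interpolation; highest concentration if not reached. GI50 is the concentration that inhibits growth by half. At the TGI there is no net growth.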

Legend:
Assay in all cases: NCI-60 cell line screen, 48 h
HOP-62 NSCLC = system: HOP-62 NSCLC
U251 CNS = system: U251 CNS
COLO 205 colon = system: COLO 205 colon
OVCAR-3 ovarian = system: OVCAR-3 ovarian
RPMI-8226 leukemia = system: RPMI-8226 leukemia
UACC-62 melanoma = system: UACC-62 melanoma
PC-3 prostate = system: PC-3 prostate
NCI/ADR-RES ovarian = system: NCI/ADR-RES ovarian
TK-10 renal = system: TK-10 renal
SF-268 CNS = system: SF-268 CNS

Compound	GI50 (HOP-62 NSCLC)	TGI (HOP-62 NSCLC)	GI50 (U251 CNS)	TGI (U251 CNS)	GI50 (COLO 205 colon)	GI50 (OVCAR-3 ovarian)	TGI (OVCAR-3 ovarian)	GI50 (RPMI-8226 leukemia)	TGI (RPMI-8226 leukemia)	GI50 (UACC-62 melanoma)	TGI (UACC-62 melanoma)	GI50 (PC-3 prostate)	TGI (PC-3 prostate)	GI50 (NCI/ADR-RES ovarian)	TGI (NCI/ADR-RES ovarian)	GI50 (TK-10 renal)	TGI (TK-10 renal)	GI50 (SF-268 CNS)	TGI (SF-268 CNS)	TGI (COLO 205 colon)
COc1cc(C(=O)O[C@H](C(=O)NCCCCCNC(=O)[C@@H](OC(=O)c2cc(OC)cc3c(C)cccc23)[C@]2(C)CO2)[C@]2(C)CO2)c2cccc(C)c2c1	< 0.01 µM	0.157 µM	< 0.01 µM	0.3 µM	286 nM	1610 nM	10.6 µM	1.82 µM	10.2 µM	0.53 µM	1.08 µM	0.997 µM	> 41.1 µM	0.165 µM	0.584 µM	0.661 µM	2.37 µM	< 0.0304 µM	0.92 µM	
COc1cc(OC(=O)c2ccccc2)cc2c1C(=O)C=CC2=O		58.6 µM		38.2 µM			14.2 µM		29.7 µM		28.5 µM		28.5 µM		> 88.6 µM		32.5 µM		36.3 µM	33.7 µM
N#CC(NC12CC3CC(CC(C3)C1)C2)c1ccc2c(c1)OCO2 (stereo unspecified)		> 100 µM		> 100 µM			> 100 µM		> 100 µM		> 100 µM		> 100 µM		> 100 µM		> 100 µM		> 100 µM	> 100 µM
CC(C)N(Cc1ccccc1)c1c(S)ssc1=S	4.24 µM	> 100 µM	2.58 µM	15.9 µM	1560 nM	1210 nM	> 100 µM	0.772 µM	6.27 µM	0.452 µM	15 µM	2.23 µM	9.44 µM	3.33 µM	> 100 µM	5.08 µM	> 100 µM	2.86 µM	31.7 µM	4.26 µM
O=C(CCCCCCCCC(=O)N/N=C\c1ccccc1O)N/N=C\c1ccccc1O	0.418 µM	4.72 µM	0.308 µM	9.14 µM	2630 nM	343 nM	> 51.2 µM	1.03 µM	35.8 µM	0.331 µM	5.54 µM	0.855 µM	> 58.6 µM	0.514 µM	25.4 µM	1.87 µM	> 46.7 µM	0.342 µM	9.72 µM	> 35.2 µM
COC(=O)c1nc(-c2ccccc2)oc1S(=O)(=O)Cc1ccccc1	26.8 µM	> 100 µM	15.5 µM	29 µM	1840 nM	1940 nM	3.52 µM	3.05 µM	9.51 µM	6.52 µM	20 µM	15 µM	29.4 µM	16.9 µM	36.3 µM	1.74 µM	3.19 µM	16.1 µM	32.8 µM	3.66 µM
CC1CCC(NC(=O)N(CCCl)N=O)CC1 (stereo unspecified)	71.2 µM	93 µM	20.8 µM	65.9 µM	23100 nM		70.4 µM	12.5 µM	37 µM and 103 µM	7.87 µM	29.7 µM and 53.5 µM		96.6 µM		129 µM	45.2 µM	125 µM	14.9 µM	39.8 µM and 89.5 µM	43.3 µM and 60.2 µM
COc1cc(C[C@H]2c3cc(OC)c(OC)cc3CCN2C)c(Oc2cc3c(cc2OC)-c2c(OC)c(OC)cc4c2[C@H](C3)N(C)CC4)cc1OC	19.9 µM	24 µM and 35.6 µM	10.7 µM	8.95 µM and 22.7 µM	2170 nM	11800 nM	23.6 µM and 24.8 µM	3.22 µM	25.5 µM and 15.4 µM	19 µM	13.4 µM and 34.2 µM		33.7 µM		32.3 µM	15.7 µM	12.9 µM and 29.2 µM	14.3 µM	31 µM and 28.4 µM	12.6 µM and 8.09 µM
COc1ccc2c(c1)c(=O)oc1cc(OC/C(C)=N\O)ccc12	28.7 µM	> 100 µM	33.4 µM	> 100 µM	> 100000 nM	> 100000 nM	> 100 µM	> 100 µM	> 100 µM	75.5 µM	> 100 µM	> 100 µM	> 100 µM	> 100 µM	> 100 µM	44.8 µM	> 100 µM	37.7 µM	> 100 µM	> 100 µM
CCC1C2Cc3ccc(O)cc3C1(CC)CCN2C (stereo unspecified)		> 100 µM		> 100 µM			> 100 µM		> 100 µM		> 100 µM		> 100 µM		> 100 µM		> 100 µM		> 100 µM	> 100 µM
COc1cc([N+](=O)[O-])c(OC)cc1-c1nc2sc(Cl)cn2c1/C(N)=N/C(=N)N	6.32 µM	17.3 µM	3.41 µM	> 100 µM	2710 nM	1720 nM	3.45 µM	5.73 µM	20.5 µM	15 µM	35.3 µM	3.22 µM	13 µM	61.4 µM	> 100 µM	7.31 µM	24.3 µM	4.17 µM	11.8 µM	6.67 µM
CCN(CC)CCCC(C)Nc1ccnc2cc(Oc3ccccc3)ccc12 (stereo unspecified)	7.45 µM and 11.5 µM	21.7 µM and 37.4 µM	2.71 µM and 5.51 µM	9.31 µM and 19.8 µM	1880 nM and 1650 nM	13700 nM and 22000 nM	34.2 µM and > 100 µM	5.02 µM and 5.36 µM	13.9 µM and 28.2 µM	4.16 µM and 3.24 µM	11.2 µM and 12.3 µM	8.89 µM and 19.3 µM	35.5 µM and > 100 µM	14.3 µM and 38.4 µM	34.1 µM and > 100 µM	2.58 µM and 3.23 µM	8.34 µM and 10.3 µM	6.48 µM and 8.36 µM	19.9 µM and 92.4 µM	4.4 µM and 3.94 µM
CN(C)CCN1C(=O)c2ccccc2N(C)c2ccccc21	> 100 µM	> 100 µM	> 100 µM	> 100 µM	> 100000 nM	> 100000 nM	> 100 µM	> 100 µM	> 100 µM	> 100 µM	> 100 µM	> 100 µM	> 100 µM	> 100 µM	> 100 µM	> 100 µM	> 100 µM	> 100 µM	> 100 µM	> 100 µM
COc1cc([C@@H]2OC[C@@H]3C(c4cc(OC)c5c(c4)OCO5)OC[C@@H]32)cc(OC)c1OC (stereo partly specified)		> 100 µM		> 100 µM			> 100 µM		> 100 µM		> 100 µM		> 100 µM		> 100 µM		> 100 µM		> 100 µM	> 100 µM
c1ccc2[nH]c(-c3ccc(-c4nccc5c4[nH]c4ccccc45)cc3)nc2c1	2.8 µM	10.8 µM	2.74 µM	7.83 µM	2320 nM	1800 nM	3.64 µM	2.48 µM	5.61 µM	1.6 µM	3.49 µM	8.59 µM	25.1 µM	3.5 µM	15.2 µM	2.07 µM	4.59 µM	2.89 µM	10.2 µM	6.22 µM
O=C1Nc2ccccc2/C1=C/C(=O)c1coc2c1C(=O)c1ccccc1C2=O			> 100 µM	> 100 µM	> 100000 nM	> 100000 nM	> 100 µM	> 100 µM	> 100 µM	94.4 µM	> 100 µM	> 100 µM	> 100 µM	> 100 µM	> 100 µM	> 100 µM	> 100 µM	> 100 µM	> 100 µM	> 100 µM
CC(C)(C)c1ccc(Oc2nccc(-c3c(-c4ccc(F)cc4)ncn3C3CCNCC3)n2)cc1	4.25 µM	7.88 µM	3.23 µM	6.49 µM	3690 nM	4250 nM	7.77 µM	3.56 µM	7.97 µM	4.25 µM	7.77 µM	2.88 µM	6.19 µM	3.39 µM	7 µM	4.4 µM	8.04 µM	3.34 µM	7.07 µM	7.46 µM
COc1ccc(C(=O)OC2C(OC3C(O)COC(O[C@H]4C[C@H]5[C@@H]6CC=C7C[C@@H](O)CC[C@]7(C)[C@H]6CC[C@]5(C)[C@H]4[C@H](C)C(=O)CCC(C)C)C3OC(N)=O)OCC(O)C2O)cc1 (stereo partly specified)	0.0247 µM	1.7 µM	< 0.003 µM	3.32 µM	72 nM	755 nM	5.75 µM	< 0.003 µM	0.00997 µM	0.00978 µM	0.04 µM	0.0073 µM	0.473 µM	13.9 µM	30 µM	1.04 µM	5.23 µM	0.0427 µM	1.49 µM	0.507 µM
COc1ccc(C(=O)c2cc(OC)c(OC)c(OC)c2)cc1OC(=O)CCl	0.224 µM	> 100 µM	0.0422 µM	> 100 µM	1210 nM	28.7 nM		< 0.021 µM	12.9 µM	0.565 µM	> 100 µM	< 0.0192 µM	> 100 µM	< 0.0167 µM	> 100 µM	19.4 µM	> 100 µM	0.106 µM	> 100 µM	15.6 µM
O=C(O)C(/C=C/c1ccccc1)c1ccccc1 (stereo unspecified)		> 100 µM		> 100 µM			> 100 µM		> 100 µM		> 100 µM		> 100 µM		> 100 µM		> 100 µM		> 100 µM	> 100 µM
O=C(O)CNC(=O)c1ccc(-c2ccccc2)cc1		> 100 µM		> 100 µM			> 100 µM		> 100 µM		> 100 µM		> 100 µM		> 100 µM		> 100 µM		> 100 µM	> 100 µM
COc1cc(/C=C/C(=O)c2cccc(Nc3nc(Nc4ccccc4)nc(Nc4ccccc4)n3)c2)cc(OC)c1OC	23.5 µM	> 94.5 µM	11.4 µM	> 100 µM	4770 nM	4490 nM	56 µM	0.53 µM	4.58 µM	43.8 µM	> 100 µM	2.19 µM	> 100 µM	3.82 µM	> 100 µM	63.9 µM	> 100 µM	13.8 µM	> 100 µM	30.7 µM
Cc1c(C(N)=O)sc2c1C(=O)N(Cc1ccccc1)C1=NN=C(c3ccc(Cl)cc3)CN12	3.62 µM	18.5 µM	2.39 µM	13.2 µM	4420 nM	3750 nM	16.4 µM	4.56 µM	> 100 µM	2.23 µM	5.9 µM	3.84 µM	20.9 µM	1.76 µM	11.3 µM	6.52 µM	18.9 µM	2.63 µM	14.1 µM	16.9 µM
COc1ccc(/C(COc2ccc3c(=O)cc(-c4ccccc4)oc3c2)=N\O)cc1	26.1 µM	> 50 µM	14.8 µM	> 50 µM	26500 nM	10300 nM	38.7 µM	22.3 µM	> 50 µM	10.9 µM	31.4 µM	12.7 µM	> 36.1 µM	15.4 µM	> 50 µM	10.7 µM	28.1 µM	11.3 µM	> 36.8 µM	> 50 µM
C=C(C)C(=O)Nc1ccc(NC(C)C)cc1	> 100 µM	> 100 µM	> 100 µM	> 100 µM	> 100000 nM	> 100000 nM	> 100 µM	> 100 µM	> 100 µM	> 100 µM	> 100 µM	> 100 µM	> 100 µM	> 100 µM	> 100 µM	> 100 µM	> 100 µM	> 100 µM	> 100 µM	> 100 µM
Cc1ccc(Nc2n[nH]c(=S)s2)cc1C		> 100 µM		> 100 µM			> 100 µM		> 100 µM		> 100 µM		> 100 µM		> 100 µM		> 100 µM		> 100 µM	> 100 µM
C=C1CCC2C3(C)COC(c4ccc(N(C)C)cc4)OC3CCC2(C)C1C/C=C1/C(=O)OCC1O (stereo unspecified)	18.4 µM	33.3 µM	2.1 µM	5.21 µM	3540 nM	1960 nM	3.98 µM	1.23 µM	3.8 µM	4.26 µM	16.9 µM	2.32 µM	9.83 µM	3.83 µM	43.5 µM	8 µM	21 µM	3.78 µM	14.4 µM	12.7 µM
